Measurements: the supplement of paper PMC7695840
“And” between values parts separate entries of the source, which are not always exact repeats. Equal entries are not always repeated. Structures can show the parent of a compound that is named as a salt.

Tests used:
[1] = system: Staphylococcus aureus MW2 (mecA+); experiment: IC50 (growth, competition assay); settings: cefoxitin: subinhibitory
Procedure, shortened: (§1)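 Pre-induced, 1:1-mixed fluorescent S. aureus MW2 mecA+ and ΔmecA strains were grown 20 h at 37 °C, 90% humidity, unshaken, in LB with a daily-set subinhibitory cefoxitin dose, in 1536-well plates. Compounds were given on five- or nine-point 2-fold gradients, in two dye-swapped replicates. DsRed (540/590) and GFP (485/520) were scaled per plate between single-strain control medians, with No Treatment then set to 0.5. Per-strain IC50 was the dose halving the No Treatment signal, or the maximal signal.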

[2] = system: Staphylococcus aureus MW2 delta-mecA (mecA-); experiment: IC50 (growth, competition assay); settings: cefoxitin: subinhibitory
Procedure, shortened: as §1

Row | Compound | IC50 ([1]; fluorescent label: DsRed) | IC50 ([1]; fluorescent label: GFP) | IC50 ([2]; fluorescent label: DsRed) | IC50 ([2]; fluorescent label: GFP)
1 | CCn1cc(C(=O)O)c(=O)c2cc3c(cc21)OCO3 [UTIBID] | 15.5 µM | 15 µM | 15.2 µM | < 9.85 µM
2 | O=C(N/N=C/c1ccc([N+](=O)[O-])o1)c1ccc(O)cc1 [NIFUROXAZIDE] | < 9.85 µM | 54.6 µM | 46.2 µM | < 9.85 µM
3 | c1ccc2c(CCNc3ccc(Nc4ccncc4)cc3)c[nH]c2c1 | 104 µM | 138 µM | 61 µM | 37.1 µM
4 | C[C@@H](NCCCc1cccc(C(F)(F)F)c1)c1cccc2ccccc12 [AMG-073 HCl (Cinacalcet hydrochloride)] | 48.8 µM | 54.9 µM | 13.4 µM | < 9.85 µM
5 | COC(=O)c1c(OC)cc2c(c1C)Oc1c(Cl)c(O)c(Cl)c(C)c1C(=O)O2 [GANGALEOIDIN] | < 9.85 µM | 62.4 µM | 38.3 µM | < 9.85 µM
6 | Cc1nc2ccccc2n1Cc1ccc(Cl)cc1 [CHLORMIDAZOLE] | < 9.85 µM | 10.3 µM | < 9.85 µM | < 9.85 µM
7 | CC1CCc2c(N3CCC(O)CC3)c(F)cc3c(=O)c(C(=O)O)cn1c23 (configuration not stated) [ACUATIM] | < 9.85 µM | < 9.85 µM | < 9.85 µM | < 9.85 µM
8 | COc1cc(C)c(C(=O)Oc2cc(C)c(C(=O)O)c(O)c2C)c(OC)c1C [DIFFRACTAIC ACID] | 31 µM | 27.5 µM | 12.8 µM | 15.7 µM
9 | C=C[C@](C)(O)CC[C@@H]1[C@@]2(C)CCCC(C)(C)[C@@H]2CC[C@@]1(C)O [Sclareol] | 99.3 µM | 65.2 µM | 25 µM | 19.7 µM
10 | COc1c(O)cc2oc3cc(O)c(CC=C(C)C)c(O)c3c(=O)c2c1CC=C(C)C [alpha-MANGOSTIN] | < 9.85 µM | < 9.85 µM | < 9.85 µM | < 9.85 µM
11 | COc1c(N2C[C@@H]3CCCN[C@@H]3C2)c(F)cc2c(=O)c(C(=O)O)cn(C3CC3)c12 [AVELOX] | < 9.85 µM | < 9.85 µM | < 9.85 µM | < 9.85 µM
12 | CCCCC[C@H](CC(=O)NO)C(=O)N[C@H](C(=O)N1CCC[C@H]1CO)C(C)C [Actinonin] | 15.6 µM | 11 µM | < 9.85 µM | < 9.85 µM
13 | Cc1nc2sccn2c(=O)c1CCN1CCC(=C(c2ccc(F)cc2)c2ccc(F)cc2)CC1 [Ritanserin] | 57.5 µM | 56.9 µM | 17.3 µM | 29 µM
14 | Cc1oc(=O)oc1CN1CCN(c2cc3c(cc2F)c(=O)c(C(=O)O)c2n3C(C)S2)CC1 (configuration not stated) [QUISNON] | < 9.85 µM | < 9.85 µM | < 9.85 µM | < 9.85 µM
15 | O=C1OC(c2ccc(O)cc2)(c2ccc(O)cc2)c2ccccc21 [EXLAX] | 112 µM | 52.1 µM | 49.7 µM | 59 µM
16 | C[C@@H](O)[C@H]1C(=O)N2C(C(=O)O)=C(S[C@@H]3CN[C@H](CNS(N)(=O)=O)C3)[C@H](C)[C@H]12 [Doripenem Hydrate] | > 150 µM | > 150 µM | 137 µM | 130 µM
17 | Cc1cc2c(C(C)C)c(O)c(O)c(C=O)c2c(O)c1-c1c(C)cc2c(C(C)C)c(O)c(O)c(C=O)c2c1O [GOSSYPOL] | < 9.85 µM | < 9.85 µM | < 9.85 µM | < 9.85 µM
18 | O=[N+]([O-])c1ccc2c(c1)S(=O)(=O)C=C2 [Stattic] | 35.8 µM and 35.3 µM | 35.4 µM and 56.2 µM | 25.7 µM and 16.6 µM | 13.6 µM and < 9.85 µM
19 | CC(=O)OCC(=O)[C@H]1CC[C@H]2[C@@H]3CCC4=CC(=O)CC[C@]4(C)[C@H]3CC[C@]12C [PERCOTEN] | 144 µM | 62.6 µM | 26.6 µM | > 150 µM
20 | O=C(O[C@@H]1Cc2c(O)cc(O)cc2O[C@@H]1c1cc(O)c(O)c(O)c1)c1cc(O)c(O)c(O)c1 [(-)-Epigallocatechin gallate] | 27.4 µM and 17.3 µM | 29.7 µM and 46.5 µM | 4.65 µM and < 9.85 µM | 3.45 µM and < 9.85 µM
21 | CNCCCC12CCC(c3ccccc31)c1ccccc12 [LUDIOLMIL] | > 150 µM | 134 µM | 31.2 µM | 48.5 µM
22 | CN1CCN(C2Cc3ccccc3Sc3ccc(Cl)cc32)CC1 (configuration not stated) [(?)-Octoclothepin maleate] | 73.8 µM | 61.8 µM | < 9.85 µM | 29.3 µM
23 | COc1c(N2C[C@@H]3CCCN[C@@H]3C2)c(F)cc2c(=O)c(C(=O)O)cn(C3CC3)c12 [Moxifloxacin hydrochloride] | < 0.498 µM | < 0.498 µM | < 0.498 µM | < 0.498 µM
24 | O=c1c(O)c(-c2ccc(O)c(O)c2)oc2cc(O)cc(O)c12 [Quercetin dihydrate (Sophoretin)] | 58.2 µM | 53.4 µM | 18.7 µM | 11.1 µM

Row | Compound | IC50 ([1]; fluorescent label: DsRed) | IC50 ([1]; fluorescent label: GFP) | IC50 ([2]; fluorescent label: DsRed) | IC50 ([2]; fluorescent label: GFP)
25 | CC(=O)NC[C@H]1CN(c2ccc(N3CCOCC3)c(F)c2)C(=O)O1 [Linezolid] | < 9.85 µM | < 9.85 µM | < 9.85 µM | < 9.85 µM
26 | CO[C@H]1/C=C/O[C@@]2(C)Oc3c(C)c(O)c4c(O)c(c5c(nc6cc(C)ccn65)c4c3C2=O)NC(=O)/C(C)=C\C=C\[C@H](C)[C@H](O)[C@@H](C)[C@@H](O)[C@@H](C)[C@H](OC(C)=O)[C@@H]1C [XIFAXAN] | < 9.85 µM | < 9.85 µM | < 9.85 µM | < 9.85 µM
27 | FC(F)(F)c1ccc(Nc2nc3ccc(Oc4ccnc(-c5ncc(C(F)(F)F)[nH]5)c4)cc3[nH]2)cc1 [Raf265 derivative] | 19.6 µM | 23.4 µM | < 9.85 µM | < 9.85 µM
28 | O=c1cc(-c2ccc(O)c(O)c2)oc2cc(O)cc(O)c12 [Luteolin] | 57 µM | 56.6 µM | 27.6 µM | 20 µM
29 | CC[C@H](c1ccc(O)cc1)[C@@H](CC)c1ccc(O)cc1 [HEXESTROL] | < 9.85 µM | 29.7 µM | < 9.85 µM | < 9.85 µM
30 | CCc1cc2c(cc1CC)CC(NC[C@H](O)c1ccc(O)c3[nH]c(=O)ccc13)C2 [Indacaterol Maleate] | 71.1 µM | 91.4 µM | 53.8 µM | 32.2 µM
31 | CC(C)c1cccc(C(C)C)c1N1C(=O)c2ccc(O)cc2C1=O [5HPP-33] | 25.8 µM | 111 µM | 40.7 µM | < 9.85 µM
32 | Cc1cc(N)c2ccccc2[n+]1CCCCCCCCCC[n+]1c(C)cc(N)c2ccccc21 [Dequalinium Chloride] | < 9.85 µM | 11.3 µM | < 9.85 µM | < 9.85 µM
33 | N[C@@H](C(=O)N[C@@H]1C(=O)N2C(C(=O)O)=C(Cl)CS[C@H]12)c1ccccc1 [CECLOR] | 87.9 µM | 87.8 µM | < 9.85 µM | < 9.85 µM
34 | O=C1C=C2C(=CCOC2O)O1 (configuration not stated) [PATULIN] | 18.9 µM | 26.9 µM | < 9.85 µM | < 9.85 µM
35 | CCN1CCN(c2cc3c(cc2F)c(=O)c(C(=O)O)cn3C2CC2)CC1 [Enrofloxacin] | < 9.85 µM | < 9.85 µM | < 9.85 µM | < 9.85 µM
36 | CN1CCN(c2c(F)cc3c(=O)c(C(=O)O)cn4c3c2SCC4)CC1 [TEBRAXIN] | < 9.85 µM | < 9.85 µM | < 9.85 µM | < 9.85 µM
37 | CCn1cc(C(=O)O)c(=O)c2cc(F)c(N3CCNC(C)C3)c(F)c21 (configuration not stated) [Lomefloxacin hydrochloride] | < 9.85 µM | < 9.85 µM | < 9.85 µM | < 9.85 µM
38 | OC1(c2ccc(Cl)c(C(F)(F)F)c2)CCN(CCCC(c2ccc(F)cc2)c2ccc(F)cc2)CC1 [SEMAP] | 29.7 µM | 27.3 µM | < 9.85 µM | < 9.85 µM
39 | CC(C)c1ccc2c(c1)CC[C@H]1[C@](C)(CN)CCC[C@]21C [18-AMINOABIETA-8,11,13-TRIENE SULFATE] | 62.5 µM | 79.2 µM | 55.7 µM | 55.8 µM
40 | CCCCCCCCCCCCCCCC[n+]1ccccc1 [CEPACOL] | < 9.85 µM | < 9.85 µM | < 9.85 µM | < 9.85 µM
41 | O=C(/C=C/c1ccc(O)cc1)c1ccc(O)cc1O [Isoliquiritigenin] | 130 µM | > 150 µM | 27.5 µM | 17 µM
42 | CCOC(=O)C1=C(C)NC(C)=C(C(=O)OC)C1c1cccc(Cl)c1Cl (configuration not stated) [Felodipine (Plendil)] | 22.6 µM | 31.8 µM | 7.13 µM | 6.89 µM
43 | NC1CCN(c2c(F)cc3c(=O)c(C(=O)O)cn(C4CC4)c3c2Cl)C1 (configuration not stated) | < 9.85 µM | < 9.85 µM | < 9.85 µM | < 9.85 µM
44 | OCCN1CCN(CCCN2c3ccccc3Sc3ccc(Cl)cc32)CC1 [TRILAFON] | 57 µM | 52.6 µM | 18.4 µM | 15.8 µM
45 | O[C@@H](COc1cccc2ncccc12)CN1CCN([C@@H]2c3ccccc3[C@@H]3[C@H](c4ccccc42)C3(F)F)CC1 | 52.2 µM | 42.5 µM | 14.3 µM | < 9.85 µM
46 | CC1COc2c(N3CCN(C)CC3)c(F)cc3c(=O)c(C(=O)O)cn1c23 (configuration not stated) [Ofloxacin] | < 9.85 µM | < 9.85 µM | < 9.85 µM | < 9.85 µM
47 | CC1=C(O)C(=O)C=C2C1=CC=C1[C@@]2(C)CC[C@@]2(C)[C@@H]3C[C@](C)(C(=O)O)CC[C@]3(C)CC[C@]12C [Celastrol] | 1.67 µM | 1.73 µM | < 0.498 µM | < 0.498 µM
48 | COC1=C(OC)C(=O)C(CCCCCCCCCCO)=C(C)C1=O [IDEBENONE] | 22.8 µM | 28.8 µM | 15.5 µM | 15 µM
